Structures can show the parent of a compound that is named as a salt.
System: RSV-GFP
Experiment: microbe, parasite or virus in culture
Format: cell-based, Respiratory syncytial virus
Conditions: for inhibition at 10 µM: human respiratory syncytial virus, HEp-2, read-out: RSV-GFP inhibition (%); for RSV-GFP inhibition (%): 10.0 µM, HEp-2, RSV-GFP MOI 0.5, single replicate
Experimental: The following morning, cells were washed twice with serum-free EMEM and treated with RSV-GFP (MOI 0.5) in a minimal volume of serum-free media for 90 min under frequent agitation. Unbound virus was then removed and replaced with fresh serum-containing EMEM. All drug additions were performed 2 h post-viral exposure, unless otherwise stated.
Automated quantification of infection rates from fluorescent images were performed in CellProfiler (v2.2.0)[86]. Major steps in the image analysis pipeline included: (1) background subtraction and smoothing, (2) segmentation of nuclei, (3) segmentation of GFP-fluorescent area, (4) object masking, and (5) measurement of nuclear number, size, and intensity. Infection rate was quantified from the ratio of nuclei within GFP-fluorescent area to the total number of nuclei (Fig. 1b). This method of analysis accounts for in vitro syncytium formation induced by RSV, whereby a single infected cell may arise from the fusion of multiple cells. Mean nuclear fluorescent intensity and size was quantified as a measure of cell viability.
The MicroSource […] Collection (Discovery Systems Inc.) consisting of 2400 compounds was screened using the previously outlined RSV-GFP infection assay protocol. Robot-assisted addition of drugs was performed within 1 h of RSV-GFP infection and infection rates were assayed 48 h p.i. Drugs were provided as 10 mM stocks in DMSO and serial diluted to a final concentration of 10 µM, resulting in a final DMSO concentration of 0.1% v/v. […] Hits were selected based on the criteria that: (a) the tested drug caused a >50% reduction in infection rate and (b) was not overtly cytotoxic (<10% change in mean nuclear intensity relative to DMSO control). Z-factors were calculated on a per-plate basis to monitor assay quality.

SMILES | inhibition at 10 µM [%] | also measured
C#C[C@]1(OC(C)=O)CC[C@H]2[C@@H]3CCC4=CC(=NO)CC[C@@H]4[C@H]3CC[C@@]21CC (mixture of isomers) [Norgestimate] | 55 | 
C#CC1(O)CC[C@H]2[C@@H]3CCC4=CC(=O)CC[C@@H]4[C@H]3CC[C@@]21CC (mixture of isomers) [Norgestrel] | 64.1 | 
COc1ccc(-c2cc(=O)c3ccccc3o2)cc1 [4’-Methoxyflavone] | 59.9 | 
O=c1cc(-c2ccc(O)cc2)oc2ccc(O)cc12 [6,4’-Dihydroxyflavone] | 75.3 | 
CC1(C)C(=O)C=C[C@]2(C)[C@H]3CC[C@@]4(C)[C@H](c5ccoc5)OC(=O)[C@H]5O[C@]54[C@]3(C)C=C[C@@H]12 [7-Desacetoxy-6,7-dehydrogedunin] |  | RSV-GFP inhibition (%): 69.38%
CCCCC(CC)CNC(=N)NC(=N)NCCCCCCNC(=N)NC(=N)NCC(CC)CCCC (stereo not shown) [Alexidine hydrochloride] | 66.8 | 
COc1cc2c(cc1OC)[C@@H]1C(=O)c3c(O)cc4c(c3O[C@@H]1CO2)C=CC(C)(C)O4 [Alpha-toxicarol] |  | RSV-GFP inhibition (%): 63.58%
Nc1c2ccccc2nc2ccccc12 [Aminacrine] | 58.3 | 
CC[C@@]1(O)C(=O)OCc2c1cc1n(c2=O)Cc2cc3ccccc3nc2-1 [Camptothecin] | 55.7 | 
CCCCCCCCCCCCCCCC[N+](C)(C)C [Cetrimonium bromide] | 71.2 | 
Cc1nc2ccccc2n1Cc1ccc(Cl)cc1 [Chlormidazole] | 68.5 | 
C=C[C@@]1(C)CC(=O)[C@]2(O)[C@@]3(C)[C@@H](O)CCC(C)(C)[C@@H]3[C@H](O)[C@H](OC(C)=O)[C@@]2(C)O1 [Colforsin] | 72.5 | 
C[C@@H]1C[C@@H]([C@H](O)CC2CC(=O)NC(=O)C2)C(=O)[C@@H](C)C1 [Cycloheximide] | 75 | 
CC1=C2C[C@H]3[C@@H](CC=C4C[C@@H](O)CC[C@@]43C)[C@@H]2CC[C@]12O[C@@H]1C[C@H](C)CN[C@H]1[C@H]2C [Cyclopamine] | 86 | 
Cc1cc(N)c2ccccc2[n+]1CCCCCCCCCC[n+]1c(C)cc(N)c2ccccc21 [Dequalinium chloride] | 63.8 | 
C[C@]12CC[C@H](O)C[C@H]1CC[C@@H]1[C@@H]2C[C@@H](O)[C@]2(C)[C@@H](C3=CC(=O)OC3)CC[C@]12O [Digoxigenin] | 85.1 | 
Cc1c(O)c(O)cc2c1CC=C1[C@@]2(C)CC[C@@]2(C)[C@@H]3C[C@](C)(C(=O)O)CC[C@]3(C)CC[C@]12C [Dihydrocelastrol] | 82.6 | 
CC(=O)Oc1cc2c(c(C)c1OC(C)=O)CC=C1[C@@]2(C)CC[C@@]2(C)C3C[C@](C)(C(=O)O)CC[C@]3(C)CC[C@]12C (stereo partly shown) [Dihydrocelastryl diacetate] |  | RSV-GFP inhibition (%): 89.96%
C[C@]12CCC(=O)C=C1[C@@H]1C[C@@H]1[C@H]1[C@@H]3[C@@H]4C[C@@H]4[C@@]4(CCC(=O)O4)[C@@]3(C)CC[C@@H]12 [Drospirenone] | 68.3 | 
CC[C@H]1CN2CCc3cc(OC)c(OC)cc3[C@@H]2C[C@@H]1C[C@H]1NCCc2cc(OC)c(OC)cc21 [Emetine dihydrochloride] | 100 | 
CC(C)n1c(/C=C/C(O)CC(O)CC(=O)O)c(-c2ccc(F)cc2)c2ccccc21 (stereo not shown) [Fluvastatin] | 73.2 | RSV inhibition in the screen (HEp-2, RSV-GFP): inhibit RSV at low micromolar concentrations
CN(C)c1ccc(C(=C2C=CC(=[N+](C)C)C=C2)c2ccc(N(C)C)cc2)cc1 [Gentian violet] | 86.3 | 
CC(=O)O[C@H]1CC[C@@]2(C)[C@H](CC[C@@H]3[C@@H]2CC[C@]2(C)[C@@H](C4=CC(=O)OC4)[C@@H](OC(C)=O)C[C@]32O)C1 [Gitoxigenin diacetate] | 91.8 | 
C[C@H]1O[C@@H](O[C@H]2[C@@H](O)C[C@H](O[C@H]3[C@@H](O)C[C@H](O[C@H]4CC[C@@]5(C)[C@H](CC[C@@H]6[C@@H]5CC[C@]5(C)[C@@H](C7=CC(=O)OC7)[C@@H](O)C[C@]65O)C4)O[C@@H]3C)O[C@@H]2C)C[C@H](O)[C@@H]1O [Gitoxin] | 85.7 | 
